# Publication PMC4822253, “Inhibition of BMP and of TGFβ receptors downregulates expression of XIAP and TAK1 leading to lung cancer cell death” (Molecular Cancer, 2016)
# Key:
# H1299 cells [1] = assay: Cell death assay (ethidium bromide uptake); type: cell-based
# Method: (§1) Cells were plated in 6 well plates with 10^6 cells per well. Three days following treatment with inhibitor(s) and/or transfection the adherent and floating cells were harvested and incubated with 0.1 mg/ml of ethidium bromide. Cells that die by necrosis or apoptosis lose membrane integrity and take up ethidium bromide. Immediately after staining approximately 100 cells were counted and the percentage of cells that took up ethidium bromide was determined.
# A549 cells [2] = assay: Cell death assay (ethidium bromide uptake); type: cell-based; conditions: after 3 days
# Method: as §1
# H1299 Id1-luc cells = assay: Id1-promoter luciferase reporter assay; type: cell-based; conditions: 1.0 μM and 2.5 μM, 48 h
# Method: H1299 cells were stably transfected with the Id1-promoter luciferase reporter. Treated cells were lysed with 1X luciferase lysis buffer (Promega). Samples were added to luciferase assay substrate (Promega) and luminsescence measured by the TD-20/20 Luminometer (Turner Designs/Turner BioSystems, Sunnyvale, CA). Control samples included luciferase assay substrate alone and luciferase assay substrate plus 1X reporter lysis buffer.
# [3] = system: lung cancer cell lines H157, A549, H1299, H727, U1752; assay: Western blot of Id1 in panel of lung cancer cell lines; type: cell-based; conditions: 1 μM; 48 h; all cell lines of the panel
# Method: (§2) Total cellular protein was prepared using RIPA buffer containing a protease inhibitor cocktail and protein concentration was measured using the BCA assay as described. In brief, protein was analyzed by SDS-PAGE, transferred to nitrocellulose (Schleicher and Schuell, Keene, NH). After blocking, the blots were incubated overnight at 4 °C with the appropriate primary antibody in Tris-buffered saline with 1 % Tween (TBST) and 5 % BSA. Secondary antibodies were applied for 1 h at room temperature. Specific proteins were detected using the enhanced chemiluminescence system (Amersham, Arlington Heights, IL). The primary antibodies that were used were rabbit monoclonal anti-pSmad 1/5, rabbit monoclonal anti-pSmad2, rabbit monoclonal anti-Smad2, rabbit monoclonal anti-pTAK1, rabbit monoclonal XIAP, rabbit anti-monoclonal p-p65, rabbit monoclonal anti-activated caspase-3, rabbit polyclonal anti-BMPRII, and rabbit monoclonal anti-EGR-1 (Cell signaling Technology, Danvers MA), Rabbit monoclonal anti-TAK1 (Invitrogen, Grand Island NY), rabbit anti-actin, an affinity isolated antigen specific antibody (Sigma, Saint Louis, MO), rabbit monoclonal anti-Id1 and rabbit monoclonal anti-Id3 (Calbioreagents, San Mateo, CA), rabbit polyclonal anti-GAPDH (Sigma, St. Louis, MO) and rabbit polyclonal pMEK-1/2 (Cell Signaling, Danvers MA).
# Additional file 1: Figure S1. […]
# H1299 tumor xenografts = assay: Western blot analysis of tumor xenografts; type: in vivo, nude mice
# Method: Total cellular protein was prepared using RIPA buffer containing a protease inhibitor cocktail and protein concentration was measured using the BCA assay as described. In brief, protein was analyzed by SDS-PAGE, transferred to nitrocellulose (Schleicher and Schuell, Keene, NH). After blocking, the blots were incubated overnight at 4 °C with the appropriate primary antibody in Tris-buffered saline with 1 % Tween (TBST) and 5 % BSA. Secondary antibodies were applied for 1 h at room temperature. Specific proteins were detected using the enhanced chemiluminescence system (Amersham, Arlington Heights, IL). […]
# H1299 cells were stably transfected with the Id1 promoter-luciferase reporter. […] After approximately 12 days the mice were anesthetized and the luciferase activity measured. […] Mice were injected IP with 150 mg/kg luciferin-D and after a 15-min uptake period tumors were imaged with IVIS Spectrum and analyzed using Living Image software. […]
# [4] = Plasma protein binding by equilibrium dialysis; type: in vitro ADME; conditions: human plasma
# H1299 cells [5] = assay: Western blot analysis of cells in culture; type: cell-based; conditions: H1299 cells
# Method: as §2
# A549 cells [6] = assay: Western blot analysis of cells in culture; type: cell-based
# Method: as §2
# [7] = system: lung cancer cell lines H157, A549, H1299, H727, U1752; assay: Cell counts in panel of lung cancer cell lines; type: cell-based; conditions: 1 μM; 7 days; percent of vehicle control
# Method: (§3) Cells were plated into 6 well plates at 10^5 cells per well and treated with 1 μM DMSO or antagonist for 7 days. The cells were detached with trypsin, stained with trypan blue, and the number of live cells counted using a hemocytometer.
# Additional file 1: Figure S1. […] Data is depicted as percent of vehicle control. Experiments were performed 3 times. (TIF 749 kb) Additional file 2: Figure S2. […] Non-specific band from the same Western blot was used as a loading control. Experiments performed at least 3 times. (TIF 2680 kb) Additional file 3: Figure S3. Pharmacokinetics of DMH2. […] (TIF 1187 kb) Additional file 4: Figure S4. […] (A-B) Western blot of tumor xenografts treated with BMP inhibitors for 24 h and 9 days. […] (E-G) Data depict the mean as the percent of control. Experiments were performed at least 3 times. (TIF 9413 kb) Additional file 5: Figure S5. […] The data represents the mean of at least 4 experiments. (TIF 359 kb) Additional file 6: Figure S6. […] The studies represent the mean of at least 3 independent experiments. […] (TIF 2411 kb)
# H1299 cells [8] = assay: Cell counts (live cells, trypan blue); type: cell-based
# Method: as §3
# A549 cells [9] = assay: Cell counts (live cells, trypan blue); type: cell-based; conditions: compound alone, 7 days
# Method: as §3
# Pharmacokinetics in mice = type: in vivo; conditions: BALB/c mice; 2 mg/kg tail vein injection and 10 mg/kg p.o. study
# Method: Three mice at each time point were dosed with a 2 mg/kg tail vein injection and 10 mg/kg p.o. Blood samples were taken 0.08, 0.25, 0.5, 1, 2, 4, 8, 12, and 24 h (i.v.) and 0.25, 0.5, 1, 2, 4, 6, 8, 12, and 24 h (p.o.). Plasma half-life, clearance, and volume of distribution were then determined.
# [10] = 24 and 48 h, suppression at higher concentrations
smiles,measurement,setting,value
c1ccc2c(-c3cnn4cc(-c5ccc(OCCN6CCOCC6)cc5)cnc34)ccnc2c1 [DMH2],cell death compared to DMH1 and LDN,H1299 cells [1]; H1299 cells,significantly greater
same,cell death in cells expressing mutant XIAP,"H1299 cells [1]; H1299 cells stably expressing mutant XIAP, 3 days",resistant to cell death
same,cell death,"H1299 cells [1]; H1299 cells, after 3 days",significant cells death
same,cell death,A549 cells [2],significant cells death
same,suppression of Id1 promoter activity in comparison to DMH1,H1299 Id1-luc cells,significantly greater suppression
same,expression of Id1,[3],decreased
same,increase in the expression of Id1 protein compared to controls,"H1299 tumor xenografts; 9 days, twice-daily injection, normalized to GAPDH",103%
same,phosphorylated TAK1 and Smad2 in tumor xenografts,H1299 tumor xenografts; treated for 24 h and 9 days,increase
same,percent binding plasma proteins,[4],98.6 % +/−0.7
same,expression of phosphorylated MEK-1/2,H1299 cells [5]; 24 and 48 h,increase
same,low dose that can cause an increase in the expression of Id1,H1299 cells [5]; [10],0.5 µM
same,expression of activated caspase-3,H1299 cells [5]; 48 h,induced
same,expression of Smad2,H1299 cells [5]; 3 days,very significant decrease
same,expression of TAK1 and phosphorylation of NF-kappa B subunit p65,H1299 cells [5]; 3 days,decrease
same,expression of XIAP,H1299 cells [5]; after 3 days (cell line not stated for DMH1 and LDN),significant decrease
same,phosphorylation of TAK1 and Smad2,"H1299 cells [5]; increasing doses, 48 h","increase in phosphorylation of TAK1and Smad2 at lower doses, which tapered off at higher doses"
same,low dose that can cause an increase in the expression of Id1,A549 cells [6]; [10],0.5 µM
same,expression of activated caspase-3,A549 cells [6]; 48 h,induced
same,expression of phosphorylated MEK-1/2,A549 cells [6]; 48 h,increase
same,expression of Smad2,A549 cells [6]; 3 days,very significant decrease
same,expression of TAK1 and phosphorylation of NF-kappa B subunit p65,A549 cells [6]; 3 days,decrease
same,expression of XIAP,A549 cells [6]; after 3 days,significant decrease
same,phosphorylation of TAK1 and Smad2,"A549 cells [6]; increasing doses, 48 h","increase in phosphorylation of TAK1and Smad2 at lower doses, which tapered off at higher doses"
same,growth (cell counts),[7],inhibited growth in all of the cell lines
same,growth suppression compared to DMH1 and LDN,H1299 cells [8],significantly greater growth suppression
same,growth (cell counts),"H1299 cells [8]; compound alone, 7 days",significant growth suppression
same,growth (cell counts),A549 cells [9],growth suppression
same,elimination half-life,Pharmacokinetics in mice,57 min
same,systemic plasma clearance,Pharmacokinetics in mice,68.45 mL/min/kg
